Consider 11 compounds from ChEMBL document CHEMBL1132702, “5'-N-substituted carboxamidoadenosines as agonists for adenosine receptors” (J Med Chem, 1999).

One test deals with Adenosine receptor A2a (Rattus norvegicus, UniProt P30543).
The target of test [1] is T1, Adenosine receptor A2b (Homo sapiens) (UniProt P29275).
T1 sequence (whole entry): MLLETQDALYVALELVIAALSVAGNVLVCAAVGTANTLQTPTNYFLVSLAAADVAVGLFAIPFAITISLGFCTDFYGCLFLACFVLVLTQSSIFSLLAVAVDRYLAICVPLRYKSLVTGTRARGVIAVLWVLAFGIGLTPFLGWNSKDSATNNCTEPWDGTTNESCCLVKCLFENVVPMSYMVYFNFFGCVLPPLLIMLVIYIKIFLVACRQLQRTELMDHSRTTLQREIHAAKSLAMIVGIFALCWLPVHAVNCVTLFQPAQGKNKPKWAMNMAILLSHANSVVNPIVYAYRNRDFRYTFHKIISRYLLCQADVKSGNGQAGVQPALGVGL
Put plainly: Effective concentration for cAMP production in CHO-KI cells expressing human adenosine A2B receptor at 100 uM. The test is classed as functional, cell-based. (In general: Changes in cAMP serve as a functional read-out for many G protein-coupled receptors.)

The nature of test [2]: GTP shift was determined.
In test [3] the target is T2, Adenosine receptor A1 (Rattus norvegicus, UniProt P25099).
T2 sequence (P25099 whole entry): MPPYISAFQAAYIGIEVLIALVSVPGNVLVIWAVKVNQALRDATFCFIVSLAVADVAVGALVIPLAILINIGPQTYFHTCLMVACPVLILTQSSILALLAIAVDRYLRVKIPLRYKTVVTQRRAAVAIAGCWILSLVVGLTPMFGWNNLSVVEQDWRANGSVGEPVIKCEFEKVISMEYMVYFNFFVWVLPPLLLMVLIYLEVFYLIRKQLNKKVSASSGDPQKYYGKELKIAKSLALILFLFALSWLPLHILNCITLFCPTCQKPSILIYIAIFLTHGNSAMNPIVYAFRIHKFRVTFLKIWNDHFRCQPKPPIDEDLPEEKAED
Description: Ability to displace radioligand [3H]- DPCPX from adenosine A1 receptor on rat cortical membrane in the absence of GTP

The target in the next test is T3, Adenosine receptor A3 (Homo sapiens, UniProt P0DMS8).
T3 sequence (P0DMS8 whole entry): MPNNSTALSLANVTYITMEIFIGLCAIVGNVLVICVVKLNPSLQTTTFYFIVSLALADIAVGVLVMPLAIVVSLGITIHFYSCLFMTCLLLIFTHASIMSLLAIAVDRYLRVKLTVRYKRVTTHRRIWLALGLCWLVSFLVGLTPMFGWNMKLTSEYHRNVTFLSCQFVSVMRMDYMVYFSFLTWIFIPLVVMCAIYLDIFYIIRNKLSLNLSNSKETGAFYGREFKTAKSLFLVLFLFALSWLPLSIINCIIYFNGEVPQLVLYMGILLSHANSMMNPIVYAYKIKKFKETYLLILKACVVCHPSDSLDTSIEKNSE
The test can be described thus: Ability to displace radioligand [125I]AB-MECA from membrane of HEK 293 cells stably transfected with human adenosine A3 receptor cDNA. The test is classed as cell membranes, HEK293.

Test [4] has as its target T2, Adenosine receptor A1. Put plainly: Ability to displace radioligand [3H]- DPCPX from adenosine A1 receptor on rat cortical membrane in the presence of 1 mM of GTP.
The target of a further test is T4, Adenosine receptor A2b (Homo sapiens, UniProt P29275).
T4 sequence (P29275 whole entry): T1 sequence (whole entry)
Put plainly: Effective concentration for cAMP production in CHO-KI cells stably transfected with human adenosine A2B receptor cDNA.

Adenosine receptor A2a, sequence (P30543 whole entry): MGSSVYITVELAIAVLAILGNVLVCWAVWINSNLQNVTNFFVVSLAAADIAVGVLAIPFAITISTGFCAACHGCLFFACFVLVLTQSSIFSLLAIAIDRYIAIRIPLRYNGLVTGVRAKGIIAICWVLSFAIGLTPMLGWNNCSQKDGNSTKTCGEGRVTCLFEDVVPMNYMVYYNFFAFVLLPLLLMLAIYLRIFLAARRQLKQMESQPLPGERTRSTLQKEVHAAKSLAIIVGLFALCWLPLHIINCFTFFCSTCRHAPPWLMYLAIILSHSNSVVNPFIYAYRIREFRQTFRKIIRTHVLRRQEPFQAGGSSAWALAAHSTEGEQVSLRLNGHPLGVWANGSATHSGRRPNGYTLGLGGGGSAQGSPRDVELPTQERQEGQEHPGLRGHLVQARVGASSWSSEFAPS

Consider `CC(C)(C)NC(=O)[C@H]1O[C@@H](n2cnc3c(N)ncnc32)[C@H](O)[C@@H]1O`, for which the inhibitory constant (Ki) stood at 1340 nM at Adenosine receptor A2a, 2730 nM at Adenosine receptor A1 [3], 8500 nM at Adenosine receptor A3 and 6950 nM at Adenosine receptor A1 [4]. Besides, the Emax in test [1] worked out at 10%. For the same compound, in test [2], the GTP shift worked out at 2.6.

With `Nc1ncnc2c1ncn2[C@@H]1O[C@H](C(=O)NCCCl)[C@@H](O)[C@H]1O`, the Ki on Adenosine receptor A2a turned out to be 410 nM; at Adenosine receptor A1 [3], 248 nM; at Adenosine receptor A3 it was 322 nM; at Adenosine receptor A1 [4] it was 890 nM. For the same compound, the midpoint of the response at Adenosine receptor A2b, the EC50, lay at 32000 nM. Further, in test [2], the GTP shift was 3.6.

Turning to `CCNC(=S)[C@H]1O[C@@H](n2cnc3c(N)ncnc32)[C@H](O)[C@@H]1O`, the Ki at Adenosine receptor A2a was determined as 130 nM; at Adenosine receptor A1 [3], 141 nM; on Adenosine receptor A3, 569 nM; on Adenosine receptor A1 [4], 478 nM. Also, at Adenosine receptor A2b, the half-maximal effective concentration (EC50) is 16000 nM. Further, the GTP shift in test [2] stood at 3.4.

For the compound `Nc1ncnc2c1ncn2[C@@H]1O[C@H](C(=O)NC2CC2)[C@@H](O)[C@H]1O`, the response at Adenosine receptor A2b was half-maximal at 5300 nM (EC50). The Ki on Adenosine receptor A3 was found to be 108 nM.

Consider `CONC(=O)[C@H]1O[C@@H](n2cnc3c(N)ncnc32)[C@H](O)[C@@H]1O`, for which the Ki at Adenosine receptor A2a is 623 nM; on Adenosine receptor A1 [3], 1620 nM; on Adenosine receptor A3, 85.3 nM; at Adenosine receptor A1 [4], 1960 nM. The same compound registered an EC50 on Adenosine receptor A2b of 45000 nM. In addition, the GTP shift in test [2] was 2.4.

Regarding `Nc1ncnc2c1ncn2[C@@H]1O[C@H](C(=O)NC2CCCC2)[C@@H](O)[C@H]1O`, the Ki on Adenosine receptor A2a was determined as 610 nM; on Adenosine receptor A1 [3], 770 nM; at Adenosine receptor A3, 32 nM; at Adenosine receptor A1 [4], 4900 nM. Also, on Adenosine receptor A2b, it took 54000 nM to reach a half-maximal effect (EC50). Further, the GTP shift in test [2] is 6.4.

Regarding `Nc1ncnc2c1ncn2[C@@H]1O[C@H](C(=S)NC2CC2)[C@@H](O)[C@H]1O`, the inhibition constant Ki on Adenosine receptor A2a was 130 nM; on Adenosine receptor A1 [3] it was 137 nM; on Adenosine receptor A3, 2280 nM; at Adenosine receptor A1 [4], 459 nM. The compound also had an EC50 at Adenosine receptor A2b of 13000 nM. Further, the GTP shift in test [2] worked out at 3.4.

Take `CC(C)NC(=O)[C@H]1OC(n2cnc3c(N)ncnc32)[C@H](O)[C@@H]1O` (some centres not stated): the inhibitory constant (Ki) at Adenosine receptor A2a was found to be 160 nM; at Adenosine receptor A1 [3], 257 nM; at Adenosine receptor A3, 211 nM; at Adenosine receptor A1 [4], 804 nM. On Adenosine receptor A2b, this compound yielded a half-maximal effective concentration (EC50) of 37000 nM. In addition, the GTP shift in test [2] stood at 3.1.

At Adenosine receptor A2b, `CNC(=O)[C@H]1O[C@@H](n2cnc3c(NCc4cccc(I)c4)ncnc32)[C@H](O)[C@@H]1O` [IB-MECA] yielded an EC50 of 11000 nM. This counts as double-digit micromolar.

Consider `Nc1ncnc2c1ncn2[C@@H]1O[C@H](C(=O)NC2CCC2)[C@@H](O)[C@H]1O`, for which the Ki on Adenosine receptor A2a worked out at 49 nM; on Adenosine receptor A3 it was 23 nM. The EC50 at Adenosine receptor A2b came to 33000 nM.

Take `CNC(=O)[C@H]1O[C@@H](n2cnc3c(N)ncnc32)[C@H](O)[C@@H]1O`: the EC50 at Adenosine receptor A2b is 45000 nM. In addition, the inhibition constant Ki at Adenosine receptor A1 [3] worked out at 1080 nM; on Adenosine receptor A3, 6.4 nM; on Adenosine receptor A1 [4], 6840 nM.

The term Ki denotes the dissociation constant of the complex between target and ligand, obtained from inhibition or displacement. One may read the Emax as the greatest response seen or fitted, relative to the assay's reference. One may read the EC50 as the concentration needed to bring the measured effect to its halfway point. High values mean lower potency in that assay, low ones higher potency in that assay.
